Results published in US20110172147A1, “NEUROPEPTIDE-2 RECEPTOR (Y-2R) AGONISTS” (priority 2009, published 2011).
Read-outs that look alike come from different tables or passages of the source.

What was measured:
Assay type in all cases: cell-based
Y1R = molecular target: T1, Y1R (Homo sapiens, UniProt P25929); test: CaFlux Assay (FLIPR), Y1R
T1 sequence (P25929 1-384): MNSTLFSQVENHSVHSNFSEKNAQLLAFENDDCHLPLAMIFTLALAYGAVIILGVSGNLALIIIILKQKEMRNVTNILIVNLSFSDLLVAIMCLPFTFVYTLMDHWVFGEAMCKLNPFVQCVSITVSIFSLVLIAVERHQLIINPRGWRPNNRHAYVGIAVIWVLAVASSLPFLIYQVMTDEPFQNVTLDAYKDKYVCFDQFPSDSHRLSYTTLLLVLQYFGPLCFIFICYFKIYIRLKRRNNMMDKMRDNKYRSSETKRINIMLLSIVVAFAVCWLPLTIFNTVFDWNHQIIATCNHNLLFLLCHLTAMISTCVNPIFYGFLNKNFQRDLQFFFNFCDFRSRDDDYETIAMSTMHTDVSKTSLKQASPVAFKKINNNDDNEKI

hNPY2R = molecular target: T2, hNPY2R (Homo sapiens, UniProt P49146); test: cAMP Agonist Assay, HEK293/hNPY2R; design: expressed in transfected cells; host or cells: HEK293/hNPY2R (G418 selection)
T2 sequence (P49146 1-381): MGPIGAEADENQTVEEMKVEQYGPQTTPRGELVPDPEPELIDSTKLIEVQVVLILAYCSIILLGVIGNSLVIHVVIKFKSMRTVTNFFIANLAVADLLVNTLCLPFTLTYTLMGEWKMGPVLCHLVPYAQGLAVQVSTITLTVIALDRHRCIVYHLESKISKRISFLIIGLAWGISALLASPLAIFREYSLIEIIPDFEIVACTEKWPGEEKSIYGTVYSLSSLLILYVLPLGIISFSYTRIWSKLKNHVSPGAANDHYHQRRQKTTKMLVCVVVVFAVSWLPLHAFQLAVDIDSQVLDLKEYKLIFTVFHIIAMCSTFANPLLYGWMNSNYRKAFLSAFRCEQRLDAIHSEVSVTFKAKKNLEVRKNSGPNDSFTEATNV
In short: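 HEK293/hNPY2R cells (10,000/well, overnight) stimulated 30 min at room temperature with compound plus 5 μM forskolin and 0.5 mM IBMX (1.1% DMSO final). Lysate cAMP measured by competitive chemiluminescent ELISA (AP conjugate, CSPD substrate); quadruplicates.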

Y4R = Y4R (Homo sapiens, UniProt P50391); test: CaFlux Assay (FLIPR), Y4R
Y4R, sequence (P50391 whole entry): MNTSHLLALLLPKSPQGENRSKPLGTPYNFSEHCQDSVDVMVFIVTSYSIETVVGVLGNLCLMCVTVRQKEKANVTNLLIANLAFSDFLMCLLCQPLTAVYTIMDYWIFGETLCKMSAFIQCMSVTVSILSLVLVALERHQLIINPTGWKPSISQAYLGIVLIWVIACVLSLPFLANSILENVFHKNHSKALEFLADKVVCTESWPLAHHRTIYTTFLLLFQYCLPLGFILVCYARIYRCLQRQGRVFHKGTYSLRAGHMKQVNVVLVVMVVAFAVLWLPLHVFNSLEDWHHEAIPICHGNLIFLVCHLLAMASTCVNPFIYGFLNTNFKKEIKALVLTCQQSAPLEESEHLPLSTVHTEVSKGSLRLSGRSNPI

[1] = FLIPR; read-out: Y1R EC50 (nM) FLIPR
[2] = HEK293/hNPY2R cells, Forskolin 5 μM; read-out: Y2R EC50 (nM) cAMP
[3] = FLIPR; read-out: Y4R EC50 (nM) FLIPR

SMILES	EC50 (Y1R; [1])	EC50 (hNPY2R; [2])	EC50 (Y4R; [3])	EC50 (Y1R; read-out: Y1R EC50 (nM) FLIPR; FLIPR)	EC50 (hNPY2R; read-out: Y2R EC50 (nM) cAMP; HEK293/hNPY2R cells, Forskolin 5 μM)	EC50 (Y4R; read-out: Y4R EC50 (nM) FLIPR; FLIPR)
CCCCCCCCCCCCCCCCCCCC(=O)N[C@@H](CCS(=O)(=O)O)C(=O)N[C@@H](CCS(=O)(=O)O)C(=O)NCCCC[C@H](NC(=O)[C@@H](NC(=O)CCOCCOCCOCCOCCOCCOCCOCCOCCOCCOCCOCCOCCOCCOCCOCCOCCOCCOCCOCCOCCOCCOCCOCCOC)[C@@H](C)CC)C(=O)N1CCN(c2ccc3ncn(CC(=O)N[C@@H](CCCNC(N)=O)C(=O)NC(Cc4c[nH]cn4)C(=O)N[C@@H](Cc4ccc(O)cc4)C(=O)NC(CC(C)C)C(=O)N[C@@H](CC(N)=O)C(=O)NC(Cc4c[nH]c5ccccc45)C(=O)N[C@H](C(=O)N[C@H](C(=O)N[C@@H](CCCNC(=N)N)C(=O)NC(CCC(N)=O)C(=O)N(C)[C@@H](CCCNC(=N)N)C(=O)NC(Cc4ccc(O)cc4)C(N)=O)[C@@H](C)O)C(C)C)c(=O)c3c2)CC1 (stereo partly drawn) [Example 28]	> 6000 nM	1.8 nM	> 6000 nM			
CCCCCCCCCCCCCCCC(=O)N[C@@H](CCS(=O)(=O)O)C(=O)N[C@@H](CCS(=O)(=O)O)C(=O)NCCCC[C@H](NC(=O)[C@@H](NC(=O)CCOCCOCCOCCOCCOCCOCCOCCOCCOCCOCCOCCOCCOCCOCCOCCOCCOCCOCCOCCOCCOCCOCCOCCOC)[C@@H](C)CC)C(=O)N1CCN(c2ccc3ncn(CC(=O)N[C@@H](CCCNC(=N)N)C(=O)NC(Cc4c[nH]cn4)C(=O)N[C@@H](Cc4ccc(O)cc4)C(=O)NC(CC(C)C)C(=O)N[C@@H](CC(N)=O)C(=O)NC(Cc4c[nH]c5ccccc45)C(=O)N[C@H](C(=O)N[C@H](C(=O)N[C@@H](CCCNC(=N)N)C(=O)NC(CCC(N)=O)C(=O)N(C)[C@@H](CCCNC(=N)N)C(=O)NC(Cc4ccc(O)cc4)C(N)=O)[C@@H](C)O)C(C)C)c(=O)c3c2)CC1 (stereo partly drawn) [Example 29]	> 6000 nM	0.14 nM	> 6000 nM			
CC[C@H](C)[C@H](NC(C)=O)C(=O)N[C@@H](CCCCNC(=O)CCOCCOCCOCCOCCOCCOCCOCCOCCOCCOCCOCCOCCOCCOCCOCCOCCOCCOCCOCCOCCOCCOCCOCCOC)C(=O)N1CCN(c2ccc3ncn(CC(=O)N[C@@H](CCCNC(=N)N)C(=O)N[C@@H](Cc4c[nH]cn4)C(=O)N[C@@H](Cc4ccc(O)cc4)C(=O)N[C@@H](CC(C)C)C(=O)N[C@@H](CC(N)=O)C(=O)N[C@@H](Cc4c[nH]c5ccccc45)C(=O)N[C@H](C(=O)N[C@H](C(=O)N[C@@H](CCCNC(=N)N)C(=O)N[C@@H](CCC(N)=O)C(=O)N(C)[C@@H](CCCNC(=N)N)C(=O)N[C@@H](Cc4ccc(O)cc4)C(N)=O)[C@@H](C)O)C(C)C)c(=O)c3c2)CC1 [Example 21]	> 6000 nM	1.29 nM	> 6000 nM			
CCCCCCCCCCCCCCCCCCCC(=O)NCCCCCC(=O)N[C@H](C(=O)N[C@@H](CCCCNC(=O)CCOCCOCCOCCOCCOCCOCCOCCOCCOCCOCCOCCOCCOCCOCCOCCOCCOCCOCCOCCOCCOCCOCCOCCOC)C(=O)N1CCN(c2ccc3ncn(CC(=O)N[C@@H](CCCNC(=N)N)C(=O)N[C@@H](Cc4c[nH]cn4)C(=O)N[C@@H](Cc4ccc(O)cc4)C(=O)N[C@@H](CC(C)C)C(=O)N[C@@H](CC(N)=O)C(=O)N[C@@H](Cc4c[nH]c5ccccc45)C(=O)N[C@H](C(=O)N[C@H](C(=O)N[C@@H](CCCNC(=N)N)C(=O)N[C@@H](CCC(N)=O)C(=O)N(C)[C@@H](CCCNC(=N)N)C(=O)N[C@@H](Cc4ccc(O)cc4)C(N)=O)[C@@H](C)O)C(C)C)c(=O)c3c2)CC1)[C@@H](C)CC [Example 35]	> 6000 nM	0.17 nM	> 6000 nM			
CC[C@H](C)[C@H](NC(=O)[C@H](CCC(=O)O)NC(=O)[C@H](CCC(=O)O)NC(=O)CCCCCCCCCCCCCCC(=O)O)C(=O)N[C@@H](CCCCNC(=O)CCOCCOCCOCCOCCOCCOCCOCCOCCOCCOCCOCCOCCOCCOCCOCCOC)C(=O)N1CCN(c2ccc3ncn(CC(=O)N[C@@H](CCCNC(=N)N)C(=O)N[C@@H](Cc4c[nH]cn4)C(=O)N[C@@H](Cc4ccc(O)cc4)C(=O)N[C@@H](CC(C)C)C(=O)N[C@@H](CC(N)=O)C(=O)N[C@@H](Cc4c[nH]c5ccccc45)C(=O)N[C@H](C(=O)N[C@H](C(=O)N[C@@H](CCCNC(=N)N)C(=O)N[C@@H](CCC(N)=O)C(=O)N(C)[C@@H](CCCNC(=N)N)C(=O)N[C@@H](Cc4ccc(O)cc4)C(N)=O)[C@@H](C)O)C(C)C)c(=O)c3c2)CC1 [Example 54]				> 6000 nM	36 nM	> 6000 nM
CCCCCCCCCCCCCCCCCCCC(=O)N[C@@H](CCS(=O)(=O)O)C(=O)N[C@@H](CCS(=O)(=O)O)C(=O)NCCCC[C@H](NC(=O)[C@@H](NC(=O)CCOCCOCCOCCOCCOCCOCCOCCOCCOCCOCCOCCOCCOCCOCCOCCOCCOCCOCCOCCOCCOCCOCCOCCOC)[C@@H](C)CC)C(=O)N1CCN(c2ccc3ncn(CC(=O)N[C@@H](CCCNC(=N)N)C(=O)NC(Cc4c[nH]cn4)C(=O)N[C@@H](Cc4ccc(O)cc4)C(=O)NC(CC(C)C)C(=O)N[C@@H](CC(N)=O)C(=O)NC(Cc4c[nH]c5ccccc45)C(=O)N[C@H](C(=O)N[C@H](C(=O)N[C@@H](CCCNC(=N)N)C(=O)NC(CCC(N)=O)C(=O)N(C)[C@@H](CCCNC(=N)N)C(=O)NC(Cc4ccc(O)cc4)C(N)=O)[C@@H](C)O)C(C)C)c(=O)c3c2)CC1 (stereo partly drawn) [Example 27]	> 6000 nM	2.3 nM	> 6000 nM			
